Measured values as given in ChEMBL document CHEMBL3046898, “Synthesis and characterization of flurbiprofen hydrazide derivatives as potential anti-HCV, anticancer and antimicrobial agents” (2013).
Active and inactive are the calls of the source. The rule behind the calls is not given here.

Assays:
Micrococcus lylae [1] = test: Antibacterial activity against Micrococcus lylae at 6.25 to 200 ug/ml after 24 hrs by microwell dilution method; assay type: functional, organism-based
Pseudomonas aeruginosa [2] = test: Antibacterial activity against Pseudomonas aeruginosa at 6.25 to 200 ug/ml after 24 hrs by microwell dilution method; assay type: functional, organism-based
Proteus vulgaris [3] = test: Antibacterial activity against Proteus vulgaris at 6.25 to 200 ug/ml after 24 hrs by microwell dilution method; assay type: functional, organism-based
Escherichia coli [4] = test: Antibacterial activity against Escherichia coli at 6.25 to 200 ug/ml after 24 hrs by microwell dilution method; assay type: functional, organism-based
Staphylococcus cohnii [5] = test: Antibacterial activity against Staphylococcus cohnii at 6.25 to 200 ug/ml after 24 hrs by microwell dilution assay; assay type: functional, organism-based
Staphylococcus aureus [6] = test: Antibacterial activity against Staphylococcus aureus at 6.25 to 200 ug/ml after 24 hrs by microwell dilution assay; assay type: functional, organism-based
Micrococcus luteus [7] = test: Antibacterial activity against Micrococcus luteus at 6.25 to 200 ug/ml after 24 hrs by microwell dilution method; assay type: functional, organism-based
Aspergillus = test: Antifungal activity against Aspergillus at 10 mg/ml after 72 hrs by disc diffusion method; assay type: functional, organism-based
Pichia membranifaciens = test: Antifungal activity against Pichia membranifaciens at 10 mg/ml after 48 hrs by disc diffusion method; assay type: functional, organism-based
Kluyveromyces marxianus = test: Antifungal activity against Kluyveromyces marxianus at 10 mg/ml after 48 hrs by disc diffusion method; assay type: functional, organism-based
[8] = test system: Schwanniomyces occidentalis; test: Antifungal activity against Schwanniomyces occidentalis at 10 mg/ml after 48 hrs by disc diffusion method; assay type: functional, organism-based
Nakaseomyces glabratus = test: Antifungal activity against Candida glabrata at 10 mg/ml after 48 hrs by disc diffusion method; assay type: functional, organism-based
Candida parapsilosis = test: Antifungal activity against Candida parapsilosis at 10 mg/ml after 48 hrs by disc diffusion method; assay type: functional, organism-based
Candida tropicalis = test: Antifungal activity against Candida tropicalis at 10 mg/ml after 48 hrs by disc diffusion method; assay type: functional, organism-based
Candida albicans = test: Antifungal activity against Candida albicans at 10 mg/ml after 48 hrs by disc diffusion method; assay type: functional, organism-based
Photorhabdus luminescens [9] = test: Antibacterial activity against Photorhabdus luminescens at 10 mg/ml after 24 hrs by disc diffusion method; assay type: functional, organism-based
Klebsiella aerogenes [10] = test: Antibacterial activity against Enterobacter aerogenes at 6.25 to 200 ug/ml after 24 hrs by microwell dilution method; assay type: functional, organism-based
Photorhabdus luminescens [11] = test: Antibacterial activity against Photorhabdus luminescens at 6.25 to 200 ug/ml after 24 hrs by microwell dilution method; assay type: functional, organism-based
[12] = test system: Acinetobacter radioresistens; test: Antibacterial activity against Acinetobacter radioresistens at 6.25 to 200 ug/ml after 24 hrs by microwell dilution method; assay type: functional, organism-based
Salmonella paratyphi [13] = test: Antibacterial activity against Salmonella paratyphi at 6.25 to 200 ug/ml after 24 hrs by microwell dilution method; assay type: functional, organism-based; settings: Salmonella enterica subsp. enterica serovar Paratyphi A
Klebsiella aerogenes [14] = test: Antibacterial activity against Enterobacter aerogenes at 10 mg/ml after 24 hrs by disc diffusion method; assay type: functional, organism-based
[15] = test system: Acinetobacter radioresistens; test: Antibacterial activity against Acinetobacter radioresistens at 10 mg/ml after 24 hrs by disc diffusion method; assay type: functional, organism-based
Salmonella paratyphi [16] = test: Antibacterial activity against Salmonella paratyphi at 10 mg/ml after 24 hrs by disc diffusion method; assay type: functional, organism-based; settings: Salmonella enterica subsp. enterica serovar Paratyphi A
Micrococcus lylae [17] = test: Antibacterial activity against Micrococcus lylae at 10 mg/ml after 24 hrs by disc diffusion method; assay type: functional, organism-based
Pseudomonas aeruginosa [18] = test: Antibacterial activity against Pseudomonas aeruginosa at 10 mg/ml after 24 hrs by disc diffusion method; assay type: functional, organism-based
Escherichia coli [19] = test: Antibacterial activity against Escherichia coli at 10 mg/ml after 24 hrs by disc diffusion method; assay type: functional, organism-based
Proteus vulgaris [20] = test: Antibacterial activity against Proteus vulgaris at 10 mg/ml after 24 hrs by disc diffusion method; assay type: functional, organism-based
Micrococcus luteus [21] = test: Antibacterial activity against Micrococcus luteus at 10 mg/ml after 24 hrs by disc diffusion method; assay type: functional, organism-based
Staphylococcus aureus [22] = test: Antibacterial activity against Staphylococcus aureus at 10 mg/ml after 24 hrs by disc diffusion method; assay type: functional
Staphylococcus cohnii [23] = test: Antibacterial activity against Staphylococcus cohnii at 10 mg/ml after 24 hrs by disc diffusion method; assay type: functional
Hepacivirus hominis = test: Inhibition of HCV N-terminal His-tagged NS5B RNA dependent RNA polymerase expressed in Escherichia coli DH5alpha using poly rA/U12 as primer at 200 uM after 60 mins by liquid scintillation counting

With `CC(C(=O)NNC(=S)Nc1ccccc1)c1ccc(-c2ccccc2)c(F)c1` (centres undefined) the Activity (Micrococcus lylae [1]) was “inactive”, the Activity (Pseudomonas aeruginosa [2]) was “inactive” and the Activity (Proteus vulgaris [3]) was “inactive”. The Activity (Escherichia coli [4]) was “inactive”, the Activity (Staphylococcus cohnii [5]) was “inactive” and the Activity (Staphylococcus aureus [6]) was “inactive”. For the same molecule, the Activity (Micrococcus luteus [7]) was “inactive”, the Activity (Aspergillus) was “inactive” and the Activity (Pichia membranifaciens) was “inactive”. The Activity (Kluyveromyces marxianus) was “inactive”, the Activity [8] was “inactive” and the Activity (Nakaseomyces glabratus) was “inactive”. For the same molecule, the Activity (Candida parapsilosis) was “inactive”, the Activity (Candida tropicalis) was “inactive” and the Activity (Candida albicans) was “inactive”. For the same molecule, the Activity (Photorhabdus luminescens [9]) was “inactive”, the Activity (Klebsiella aerogenes [10]) was “inactive” and the Activity (Photorhabdus luminescens [11]) was “inactive”. The Activity [12] was “inactive”, the Activity (Salmonella paratyphi [13]) was “inactive” and the Activity (Klebsiella aerogenes [14]) was “inactive”. The Activity [15] was “inactive”, the Activity (Salmonella paratyphi [16]) was “inactive” and the Activity (Micrococcus lylae [17]) was “inactive”. For the same molecule, the Activity (Pseudomonas aeruginosa [18]) was “inactive”, the Activity (Escherichia coli [19]) was “inactive” and the Activity (Proteus vulgaris [20]) was “inactive”. The Activity (Micrococcus luteus [21]) was “inactive”, the Activity (Staphylococcus aureus [22]) was “inactive” and the Activity (Staphylococcus cohnii [23]) was “inactive”. For the same molecule, the inhibition (Hepacivirus hominis) was 8%.

For `CCCCNC(=S)NNC(=O)C(C)c1ccc(-c2ccccc2)c(F)c1` (centres undefined), the Activity (Micrococcus lylae [1]) was “inactive”, the Activity (Pseudomonas aeruginosa [2]) was “inactive” and the Activity (Proteus vulgaris [3]) was “inactive”. The Activity (Escherichia coli [4]) was “inactive”, the Activity (Staphylococcus cohnii [5]) was “inactive” and the Activity (Staphylococcus aureus [6]) was “inactive”. For the same molecule, the Activity (Micrococcus luteus [7]) was “inactive”, the Activity (Aspergillus) was “inactive” and the Activity (Pichia membranifaciens) was “inactive”. The Activity (Kluyveromyces marxianus) was “inactive”, the Activity [8] was “inactive” and the Activity (Nakaseomyces glabratus) was “inactive”. For the same molecule, the Activity (Candida parapsilosis) was “inactive”, the Activity (Candida tropicalis) was “inactive” and the Activity (Candida albicans) was “inactive”. The Activity (Photorhabdus luminescens [9]) was “inactive”, the Activity (Klebsiella aerogenes [10]) was “inactive” and the Activity (Photorhabdus luminescens [11]) was “inactive”. The Activity [12] was “inactive”, the Activity (Salmonella paratyphi [13]) was “inactive” and the Activity (Klebsiella aerogenes [14]) was “inactive”. The Activity [15] was “inactive”, the Activity (Salmonella paratyphi [16]) was “inactive” and the Activity (Micrococcus lylae [17]) was “inactive”. For the same molecule, the Activity (Pseudomonas aeruginosa [18]) was “inactive”, the Activity (Escherichia coli [19]) was “inactive” and the Activity (Proteus vulgaris [20]) was “inactive”. The Activity (Micrococcus luteus [21]) was “inactive”, the Activity (Staphylococcus aureus [22]) was “inactive” and the Activity (Staphylococcus cohnii [23]) was “inactive”. It also gave an inhibition (Hepacivirus hominis) of 70%.

For `Cc1cc(C)c(/C=N/NC(=O)C(C)c2ccc(-c3ccccc3)c(F)c2)c(C)c1` (centres undefined), the Activity (Micrococcus lylae [1]) was “inactive”, the Activity (Pseudomonas aeruginosa [2]) was “inactive” and the Activity (Proteus vulgaris [3]) was “inactive”. The Activity (Escherichia coli [4]) was “inactive”, the Activity (Staphylococcus cohnii [5]) was “inactive” and the Activity (Staphylococcus aureus [6]) was “inactive”. For the same molecule, the Activity (Micrococcus luteus [7]) was “inactive”, the Activity (Aspergillus) was “inactive” and the Activity (Pichia membranifaciens) was “inactive”. The Activity (Kluyveromyces marxianus) was “inactive”, the Activity [8] was “inactive” and the Activity (Nakaseomyces glabratus) was “inactive”. For the same molecule, the Activity (Candida parapsilosis) was “inactive”, the Activity (Candida tropicalis) was “inactive” and the Activity (Candida albicans) was “inactive”. The Activity (Photorhabdus luminescens [9]) was “inactive”, the Activity (Klebsiella aerogenes [10]) was “inactive” and the Activity (Photorhabdus luminescens [11]) was “inactive”. The Activity [12] was “inactive”, the Activity (Salmonella paratyphi [13]) was “inactive” and the Activity (Klebsiella aerogenes [14]) was “inactive”. The Activity [15] was “inactive”, the Activity (Salmonella paratyphi [16]) was “inactive” and the Activity (Micrococcus lylae [17]) was “inactive”. For the same molecule, the Activity (Pseudomonas aeruginosa [18]) was “inactive”, the Activity (Escherichia coli [19]) was “inactive” and the Activity (Proteus vulgaris [20]) was “inactive”. For the same molecule, the Activity (Micrococcus luteus [21]) was “inactive”, the Activity (Staphylococcus aureus [22]) was “inactive” and the Activity (Staphylococcus cohnii [23]) was “inactive”. It also gave an inhibition (Hepacivirus hominis) of 8%.

With `CC(C(=O)N/N=C/c1ccc([N+](=O)[O-])cc1)c1ccc(-c2ccccc2)c(F)c1` (centres undefined) the Activity (Micrococcus lylae [1]) was “inactive”, the Activity (Pseudomonas aeruginosa [2]) was “inactive” and the Activity (Proteus vulgaris [3]) was “inactive”. For the same molecule, the Activity (Escherichia coli [4]) was “inactive”, the Activity (Staphylococcus cohnii [5]) was “inactive” and the Activity (Staphylococcus aureus [6]) was “inactive”. The Activity (Micrococcus luteus [7]) was “inactive”, the Activity (Aspergillus) was “inactive” and the Activity (Pichia membranifaciens) was “inactive”. The Activity (Kluyveromyces marxianus) was “inactive”, the Activity [8] was “inactive” and the Activity (Nakaseomyces glabratus) was “inactive”. The Activity (Candida parapsilosis) was “inactive”, the Activity (Candida tropicalis) was “inactive” and the Activity (Candida albicans) was “inactive”. For the same molecule, the Activity (Photorhabdus luminescens [9]) was “inactive”, the Activity (Klebsiella aerogenes [10]) was “inactive” and the Activity (Photorhabdus luminescens [11]) was “inactive”. The Activity [12] was “inactive”, the Activity (Salmonella paratyphi [13]) was “inactive” and the Activity (Klebsiella aerogenes [14]) was “inactive”. The Activity [15] was “inactive”, the Activity (Salmonella paratyphi [16]) was “inactive” and the Activity (Micrococcus lylae [17]) was “inactive”. The Activity (Pseudomonas aeruginosa [18]) was “inactive”, the Activity (Escherichia coli [19]) was “inactive” and the Activity (Proteus vulgaris [20]) was “inactive”. For the same molecule, the Activity (Micrococcus luteus [21]) was “inactive”, the Activity (Staphylococcus aureus [22]) was “inactive” and the Activity (Staphylococcus cohnii [23]) was “inactive”. It also gave an inhibition (Hepacivirus hominis) of 8%.
